Source: paper PMC2945764, “Carboxypeptidase A6 in Zebrafish Development and Implications for VIth Cranial Nerve Pathfinding” (PLoS ONE, 2010)

Biological target: T1, zebrafish CPA6 (zCPA6) (Danio rerio, UniProt E7F2H8)
T1 construct: full-length cDNA in pcDNA3.1, untagged, expressed in HEK293T cells; mature 65 kDa with EGFP
T1 sequence (E7F2H8 133-442): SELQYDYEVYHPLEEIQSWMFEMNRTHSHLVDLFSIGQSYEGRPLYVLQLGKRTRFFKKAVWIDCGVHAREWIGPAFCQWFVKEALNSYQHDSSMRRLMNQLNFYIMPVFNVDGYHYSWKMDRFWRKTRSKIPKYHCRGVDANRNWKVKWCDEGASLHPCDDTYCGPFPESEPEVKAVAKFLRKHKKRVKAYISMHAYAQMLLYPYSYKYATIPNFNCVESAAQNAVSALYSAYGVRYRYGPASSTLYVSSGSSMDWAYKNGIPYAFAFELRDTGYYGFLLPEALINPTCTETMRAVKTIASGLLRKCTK
Experiment: decrease in absorbance at […] nm, ECM-bound enzyme of transfected HEK293T cells against untransfected wells
Format: biochemical
Settings: 0.5 mM substrate, 50 mM Tris-HCl pH 7.5, 150 mM NaCl, 37 °C; untagged enzyme

SMILES: O=C(C=Cc1ccco1)N[C@@H](Cc1ccccc1)C(=O)N[C@@H](Cc1ccccc1)C(=O)O [fa-FF]
- decrease in absorbance at 336 nm, ECM-bound enzyme of transfected HEK293T cells: fa-FF and fa–RL were most rapidly cleaved

SMILES: CC(C)C[C@H](NC(=O)[C@H](CCCNC(=N)N)NC(=O)C=Cc1ccco1)C(=O)O [fa-RL, fa–RL]
- decrease in absorbance at 336 nm, ECM-bound enzyme of transfected HEK293T cells: fa-FF and fa–RL were most rapidly cleaved
